In paper PMC6540222, “Small Molecule Inhibitors of KDM5 Histone Demethylases Increase the Radiosensitivity of Breast Cancer Cells Overexpressing JARID1B” (Molecules, 2019):

Tests used:
MCF-7 cells [1] = assay: Clonogenic assay after X-ray irradiation; format: cell-based, human; conditions: for proliferative capacity (clonogenic survival): MCF-7, 10 μM, compared to DMSO control
Method: One hour after treatment with inhibitors, cells were exposed to X-ray using a MLG 300/6-D apparatus (Gilardoni, Lecco, Italy) set to […] and 6 mA, in order to produce an equivalent absorbed dose of 1cGy/s. Afterwards, cells were harvested, counted and then diluted in inhibitor containing growth medium. Appropriate cell numbers were seeded in quadruplicate according to the doubling time of the cell line and to radiation dose. 24 h after this seeding, the medium with inhibitor was replaced with fresh DMEM and cells were then incubated for 14 days (enough time to allow at least six cell divisions). After this period of growth, cells were washed twice with PBS and then fixed and stained with a suitable volume of a solution made of 0.3% Methylene Blue and 80% Ethanol for 30 min at room temperature. After washing cells twice with ddH2O, plates were pictured with ChemiDoc XRS+ Imaging System (Bio-Rad) in colorimetric mode. Colonies were detected using Fiji software, with the “Find maxima” function setting a background noise threshold of 3000. Radiation-dose response curveS to X-ray for DMSO and inhibitor samples were calculated using surviving fraction. Plating efficiency and surviving fraction were calculated as follows:Plating efficiency = number of colonies counted/number of cells plated Surviving fraction = Plating efficiency/plating efficiency of shame sample

[2] = test system: pan-methyl-H3K9 levels in MCF-7 cells; assay: Western blotting of pan-methyl-H3K9 levels; format: cell-based, human; conditions: MCF-7, 24 h, three concentrations (1, 10, 30 μM)
Method: Histone isolation was performed according to acid extraction of histones protocol of Shechter and colleagues. Histone concentration was determined by running 5 μL of samples and known concentrations of commercially available purified calf thymus histones (from Sigma Aldrich Cat. #000000010223565001) on a SDS-PAGE gel. The gel is stained with Coomassie blue G 250 (BIO-RAD Cat. #161-0786) for 1 hour at room temperature and then destained in distilled water. The gel image is acquired with ChemiDoc XRS+ Imaging System (Bio-Rad, Hercules, CA, USA) and the volumes of bands of the samples are compared to standard concentrations of calf thymus histone.
Proteins were resolved on a 12% (histones) or 5% (JARID1B) denaturing polyacrylamide gel, using either 4 μg of histone preparation or 40 μg of cell lysate. […] Blots were scanned and analyzed with a ChemiDoc XRS+ Imaging System (Bio-Rad). The volumes of each band of protein was acquired using Bio-Rad’s ImageLab software by means of volume tools using global quantification. The signal for each protein was normalized to the housekeeping protein and ratios with average control values were determined. For histones as loading control was used either total histone H3 detected by a specific antibody or histone H1 levels by staining the upper part of the gel properly cut before protein transfer on nitrocellulose membrane.

MCF-7 cells [3] = assay: CCK-8 viability assay after X-ray irradiation; format: cell-based, human; conditions: MCF-7 irradiated with 3 Gy, all concentrations tested, compared to DMSO control, CCK-8 48 h post irradiation
Method: The cytoxicity assay was performed with Cell Counting Kit-8 (#96992, Sigma-Aldrich) according to the manufacturer’s instructions. 100 µL of MCF-7 T47D or MDA-MB231 cell suspension (5000 cells/well) was dispensed in a 96-well plate. After 24 h, inhibitor or DMSO was added in growth medium and then cells were irradiated. 48 h post irradiation, 10 μL of CCK-8 solution was added to each well of the plate and incubated again for 1 h. Incubate the plate for 1–4 h in the incubator. The absorbance at 450 nm was read using a VICTOR2 1420 reader (Perkin Elmer Wallac, Waltham, MA, USA). The absorbance at 450 nm of each sample, which is proportional to the number of viable cells, was first normalized on the same value of absorbance of blank (a well with only growth medium). The absorbance of each dose of radiation (sham, 0.3, 1 and 3 Gy) was normalized to the corresponding DMSO control and then, for each concentration of inhibitors, these values were normalized to the corresponding sham control.

[4] = test system: AhR pathway in MCF-7 cells; assay: Real Time PCR of CYP1A1 and AHRR transcripts (AhR pathway); format: cell-based, human; conditions: MCF-7, 10 μM
Method: Total RNA from treated cells was isolated using miRNeasy® mini kit (#217004, Qiagen, Venlo, Netherlands), according to producer’s protocol guidelines. One μg of total RNA was reverse-transcribed using QuantiTect® Reverse Transcription Kit (#205311, Qiagen), according to producer’s protocol guidelines (Qiagen).
Relative quantification of gene expression was performed with the 7500 Real Time PCR System (Thermo Fisher Scientific (Applied Biosystems), Waltham, MA, USA) using SensiFAST™ SYBR® Lo-ROX Kit (#BIO 94020, Bioline, London, UK). The relative amount of mRNA expression was determined by means of ΔΔCt method, using GAPDH as internal control. Primers were designed using www.ncbi.nlm.nih.gov/tools/primer-blast/ and purchased from Sigma-Aldrich. The following oligos were used: • -3′ CYP1A1 mRNA: • - Fw: 5′- […]-3′ • CYP1A1 mRNA: • - Rv: 5′- […]-3′ • AHRR mRNA: • - Fw: 5′- […]-3′ • AHRR mRNA: • - Rv: 5′- […]-3′-3′ • GAPDH mRNA: • - Fw: 5′- […]-3′ • GAPDH mRNA: • - Rv: 5′- CGTTGTCATACCAGGAAAT-3′

KDM5 enzymes = conditions: cited from earlier work

SMILES	proliferative capacity (clonogenic survival) (MCF-7 cells [1]; 3 Gy irradiation dose)	H3K9me3 (pan-methyl-H3K9) levels [2]	reduction of viable cells (MCF-7 cells [3])	CYP1A1 and AHRR transcript levels (AhR pathway genes) [4]	proliferative capacity (clonogenic survival) (MCF-7 cells [1]; irradiated)	number of clones in sham-irradiated cells (MCF-7 cells [1]; MCF-7, sham-irradiated (not shown))	inhibition of KDM5B and KDM5D activity in vitro (KDM5 enzymes)	IC50 (KDM5 enzymes; in vitro, toward KDM5 enzymes, ref Mannironi et al. [36])
CCOC(=O)c1ccccc1C(=O)c1cccc(NS(=O)(=O)c2ccc(OC)cc2)c1 [RS5033]	slight but significant decrease	not affected	20–35%	only a slight increase				
CCOC(=O)c1cccn1C(=O)c1cccc(NS(=O)(=O)c2ccc(OC)cc2)c1 [RS3195]			more limited effect	induces the genes involved in AhR pathway	no significant effect	lower number of clones	selectively inhibit	2 µM
